Data: paper PMC11444200, “In Vitro Evaluation of Antipseudomonal Activity and Safety Profile of Peptidomimetic Furin Inhibitors” (Biomedicines, 2024)
Like-named read-outs stand apart in the source and are kept apart here.

Assays:
[1] = system: α1-acid glycoprotein (AGP); assay: fluorescence quenching of α1-acid glycoprotein; type: binding; conditions: AGP 2 μM, ligand 0.25-2.5 μM, PBS pH 7.4, λex 285 nm
Experimental: Human serum albumin (HSA) (product code: A1653) and α1-acid glycoprotein (AGP) (product code: G9885) were purchased from Merck (Darmstadt, Germany) and used as received. Fluorescence emission spectra were recorded using a Hitachi F-4500 fluorometer (Tokyo, Japan), while absorption spectra were collected by employing a Hitachi U-3900 UV–Vis spectrophotometer (Tokyo, Japan). Before the evaluation of fluorescence data, the inner-filter effects of MI-1851 and MI-2415 were corrected based on the following equation [23, 24]:(1) Icor=Iobs×e^(Aex+Aem)/2 where Icor and Iobs are the corrected and observed emission intensities, respectively; and Aex and Aem are the absorbance of the MI compounds tested at the excitation and emission wavelengths used, respectively.
To examine the potential interaction of inhibitor MI-2415 with HSA, increasing levels of the ligand (final concentrations: 0, 1, 2, 3, 4, 7, and 10 μM) were added to a standard amount of the protein (2 μM) in PBS (pH 7.4), and then the emission spectra were recorded (λex = 295 nm, λem = 340 nm). Furthermore, the quenching effects of inhibitors MI-1851 and MI-2415 (both 0, 0.25, 0.5, 1, 1.5, 2, and 2.5 μM) were also tested on the emission signal of AGP (2 μM) in PBS (λex = 285 nm, λem = 337 nm).

IPEC-J2 cells [2] = assay: CCK-8 cytotoxicity assay in IPEC-J2 cells; type: cell-based, porcine; conditions: 50 µM or 100 µM, 24 h
Experimental: The cell line used for the experiments was the IPEC-J2 from the jejunum of porcine. The IPEC-J2 epithelial cell line was a kind gift from Dr. Jody Gookin (Department of Clinical Sciences, College of Veterinary Medicine, North Carolina State University, Raleigh, NC, USA). The cell monolayers were maintained in 75 cm^2 cell culture flasks with filtered caps (Orange Scientific, Braine-l’Alleud, Belgium) at 37 °C in a humidified atmosphere containing 5% CO2. […]
The possible cytotoxic effects of the inhibitors MI-1851 and MI-2415 (structures provided in Figure 1) in different concentrations on IPEC-J2 and those of inhibitor MI-2415 on PHHs were assessed for 24 h by performing the CCK-8 assay (Dojindo Molecular Technologies, Rockville, MD, USA). […] Following three times washing of the wells with PBS, 10 µL CCK-8 reagent mixed with 100 µL fresh Williams’ Medium E was added and the absorbance values were measured at 450 nm using the SpectraMax iD3 microplate reader (Molecular Devices, San José, CA, USA) after 2 h incubation. […]

IPEC-J2 cells [3] = assay: Amplex Red extracellular H2O2 assay in IPEC-J2 cells; type: cell-based, porcine; conditions: 50 or 100 μM, 24 h
Experimental: The cell line used for the experiments was the IPEC-J2 from the jejunum of porcine. The IPEC-J2 epithelial cell line was a kind gift from Dr. Jody Gookin (Department of Clinical Sciences, College of Veterinary Medicine, North Carolina State University, Raleigh, NC, USA). The cell monolayers were maintained in 75 cm^2 cell culture flasks with filtered caps (Orange Scientific, Braine-l’Alleud, Belgium) at 37 °C in a humidified atmosphere containing 5% CO2. The culture medium contained 50% Dulbecco’s modified Eagle’s medium (DMEM) and 50% Ham’s F12 Nutrient Mixture (Merck, Darmstadt, Germany) supplemented with 1.5 mmol/L HEPES, 5% fetal bovine serum (FBS) (Biocenter, Budapest, Hungary), 1% insulin/transferrin/sodium selenite medium supplement, 5 ng/mL epidermal growth factor (EGF), and 1% penicillin/streptomycin (all purchased from Invitrogen, Thermo Fisher Scientific, Waltham, MA, USA). Cells were used between passages 40 and 55. The media were changed every second day. Cells were seeded onto 96- and 24-well polystyrene cell culture plates for the cell viability and the Amplex Red/DCFH-DA assay, respectively. […]

furin = conditions: read-out: Ki for furin; cited from earlier work
mice = conditions: cited from earlier work; for tolerated i.p. dose: mice
CYP3A4 = CYP3A4 (Homo sapiens, UniProt P08684); assay: microsomal CYP3A4 activity assay (human hepatic microsomes); type: in vitro ADME; design: human hepatic microsomes (Gibco, Biocenter, Szeged, Hungary); tissue Gibco (Biocenter, Szeged, Hungary); host or cells: human liver microsomes; conditions: for microsomal CYP3A4 function: 25, 50 and 100 µM; for inhibition at 100 µM: human, read-out: CYP3A4 inhibitory activities
Experimental: To investigate the effects of inhibitor MI-2415 on CYP3A4 activities, a P450-Glo CYP450 assay (Promega, Madison, WI, USA) was used. […] This luminescent method involves adding a cell-permeable Luciferin-IPA at 3 µM, which was used in 300 µL phenol-red free Williams’ Medium E in each well in the CYP3A4 assay with an incubation time of 1 h. The luminescence activity of the product in the presence of the luciferin detection reagent was proportional to the CYP activity. For the microsomal CYP3A4 assay of inhibitors MI-1851 and MI-2415 at 25, 50, and 100 µM (n = 3), BioVision CYP assays (BioVision, Inc., Kampenhout, Belgium) were used according to the manufacturer’s instructions. The protein content of human hepatic microsomes (Gibco, Biocenter, Szeged, Hungary) was determined by the bicinchoninic acid protein assay kit (Pierce BCA kit, Thermo Fisher Scientific, Waltham, MA, USA) and a 100 µg/well protein was used in each study. […] A Victor X2 2030 fluorescence spectrometer (Perkin Elmer, Waltham, MA, USA) was used to detect the fluorescence intensities of the microsomal CYP3A4 function at wavelengths of λex/em = 535/587 nm and it was also applied to detect the luminescence signals of the cell-based CYP3A4 activity assay.

Chain of CYP3A4 (P08684 whole entry): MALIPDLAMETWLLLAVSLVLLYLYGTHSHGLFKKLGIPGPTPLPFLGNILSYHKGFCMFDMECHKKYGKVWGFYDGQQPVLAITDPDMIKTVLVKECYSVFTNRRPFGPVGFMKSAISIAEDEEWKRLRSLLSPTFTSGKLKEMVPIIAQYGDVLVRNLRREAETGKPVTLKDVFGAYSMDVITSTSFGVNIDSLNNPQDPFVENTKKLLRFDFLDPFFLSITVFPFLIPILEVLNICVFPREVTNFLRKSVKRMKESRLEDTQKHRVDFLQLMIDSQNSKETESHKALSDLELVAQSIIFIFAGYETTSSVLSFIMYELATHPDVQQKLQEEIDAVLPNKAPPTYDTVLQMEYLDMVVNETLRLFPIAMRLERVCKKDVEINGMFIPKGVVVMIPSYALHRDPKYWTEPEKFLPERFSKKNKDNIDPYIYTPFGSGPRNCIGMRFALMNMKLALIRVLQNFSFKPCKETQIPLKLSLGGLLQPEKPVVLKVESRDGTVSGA

SMILES | effect on fluorescence signal of AGP at 337 nm [1] | cell viability of IPEC-J2 cells (IPEC-J2 cells [2]) | extracellular H2O2 production (redox balance) in IPEC-J2 cells (IPEC-J2 cells [3]) | Ki (furin) | tolerated i.p. dose (mice; no higher dose was tested) | microsomal CYP3A4 function (CYP3A4) | inhibition at 100 µM (CYP3A4) | tolerated i.p. dose (mice) | mortality (mice; mouse, in vivo, ip, 20 mg/kg) | concentration from which CYP3A4 inhibition is significant (CYP3A4)
CC(C)(C)[C@H](NC(=O)[C@H](CCONC(=N)N)NC(=O)Cc1ccc(CNC(=N)N)cc1)C(=O)N[C@@H](CCONC(=N)N)C(=O)NCc1ccc(C(=N)N)cc1 [MI-1851] | did not induce relevant changes in the fluorescence signal of AGP | did not show a significant decrease in cell viability | slightly, but statistically not significantly | 10.1 pM | 15 mg/kg | suppressed CYP3A4 function in a concentration-dependent manner | 30 to 50% | – | – | –
CC(C)(C)[C@H](NC(=O)[C@H](CCONC(=N)N)NC(=O)Cc1ccc(CNC(=N)N)cc1)C(=O)N[C@@H](CCONC(=N)N)C(=O)NCc1ccc2c(c1)CN=C2N [MI-2415] | did not induce relevant changes in the fluorescence signal of AGP | did not show a significant decrease in cell viability | slightly, but statistically not significantly | 7.1 pM | – | reduce CYP3A4 activity but only from 50 µM | 30 to 50% | 15 mg/kg | one of four mice died | 50 µM
